# Test results reported in patent US12612394B2, “Herbicidal malonamides” (BASF SE, priority 2020, dated 2026).
# What was measured:
# ECHCG = experiment: greenhouse experiment, pre-emergence treatment; format: in vivo, Echinocloa crus-galli; details: application rate 1,000 kg/ha, pre-emergence method
# From the text: (§1) The culture containers used were plastic flowerpots containing loamy sand with approximately 3.0% of humus as the substrate. The seeds of the test plants were sown separately for each species.
# (§2) For the pre-emergence treatment, the active ingredients, which had been suspended or emulsified in water, were applied directly after sowing by means of finely distributing nozzles. The containers were irrigated gently to promote germination and growth and subsequently covered with transparent plastic hoods until the test plants had rooted. This cover caused uniform germination of the test plants, unless this had been impaired by the active ingredients. For the post-emergence treatment, the test plants were first grown to a height of 3 to 15 cm, depending on the plant habit, and only then treated with the active ingredients which had been suspended or emulsified in water. For this purpose, the test plants were either sown directly and grown in the same containers, or they were first grown separately as seedlings and transplanted into the test containers a few days prior to treatment.
# (§3) Depending on the species, the test plants were kept at 10-25° C. or 20-35° C., respectively. The test period extended over 2 to 4 weeks. During this time, the test plants were tended, and their response to the individual treatments was evaluated.
# (§4) Evaluation was carried out using a scale from 0 to 100. […]
# AMARE [1] = experiment: greenhouse experiment, pre-emergence treatment; format: in vivo, Amaranthus retroflexus; details: application rate 1,000 kg/ha, pre-emergence method
# From the text: as §1, §2, §3, §4
# ABUTH = experiment: greenhouse experiment, pre-emergence treatment; format: in vivo, Abutilon theophrasti; details: application rate 0.125 kg/ha, pre-emergence method
# From the text: as §1, §2, §3, §4
# APESV = experiment: greenhouse experiment, post-emergence treatment; format: in vivo, Apera spica-venti; details: application rate 0.500 kg/ha, post-emergence method
# From the text: as §1, §2, §3, §4
# ALOMY = experiment: greenhouse experiment, pre-emergence treatment; format: in vivo, Alopercurus myosuroides; details: application rate 0.125 kg/ha, pre-emergence method
# From the text: as §1, §2, §3, §4
# SETFA = experiment: greenhouse experiment, pre-emergence treatment; format: in vivo, Setaria faberi; details: pre-emergence method
# From the text: as §1, §2, §3, §4
# AMARE [2] = experiment: greenhouse experiment, post-emergence treatment; format: in vivo, Amaranthus retroflexus; details: application rate 0.125 kg/ha, post-emergence method
# From the text: as §1, §2, §3, §4
# SETVI = experiment: greenhouse experiment, post-emergence treatment; format: in vivo, Setaria viridis; details: application rate 0.250 kg/ha, post-emergence method
# From the text: as §1, §2, §3, §4
structure (smiles),measurement,setting,value
"COC(=O)[C@H]1C[C@@H](NC(=O)C(OC)C(=O)Nc2cc(Cl)cc(Cl)c2)CO1 (relative stereo) [I.40, methyl cis-4-[[3-(3,5-dichloroanilino)-2-methoxy-3-oxo-propanoyl]amino]tetrahydrofuran-2-carboxylate]",herbicidal activity against ECHCG,ECHCG,very good (a very good herbicidal activity is given at values of 90 to 100)
CNC(=O)[C@@H]1C[C@H](NC(=O)C(OC)C(=O)Nc2cc(F)cc(F)c2)CO1 (relative stereo) [I.100],herbicidal activity against AMARE,AMARE [1],very good (a very good herbicidal activity is given at values of 90 to 100)
COC(C(=O)Nc1cc(Cl)cc(Cl)c1)C(=O)N[C@H]1C=C[C@@H](C(=O)OC2CC2)C1 (relative stereo) [I.185],herbicidal activity against ABUTH,ABUTH,very good (a very good herbicidal activity is given at values of 90 to 100)
"COC(C(=O)Nc1cc(Cl)cc(Cl)c1)C(=O)NC1CO[C@@H](C(=O)O)C1 (stereo in doubt) [I.60, cis-4-[[3-(3,5-dichloroanilino)-2-methoxy-3-oxo-propanoyl]amino]tetrahydrofuran-2-carboxylate]",herbicidal activity against ECHCG,ECHCG,good (A good herbicidal activity is given at values of 70 to 90)
COC(=O)CC(NC(=O)C(OC)C(=O)Nc1cc(Cl)cc(Cl)c1)C(F)(F)F (stereo not shown) [I.42],herbicidal activity against APESV,APESV,good (A good herbicidal activity is given at values of 70 to 90)
COC(C(=O)Nc1cc(Cl)cc(Cl)c1)C(=O)N[C@H]1C=C[C@@H](C(=O)OC(C)C)C1 (stereo partly shown) [I.159],herbicidal activity against ALOMY,ALOMY,very good (a very good herbicidal activity is given at values of 90 to 100)
same,herbicidal activity against SETFA,SETFA; application rate 0.125 kg/ha,very good (a very good herbicidal activity is given at values of 90 to 100)
COC(=O)C1C=CC(NC(=O)C(OC(F)F)C(=O)Nc2cc(Cl)cc(Cl)c2)C1 (stereo not shown) [I.173],herbicidal activity against SETFA,SETFA; application rate 0.250 kg/ha,good (A good herbicidal activity is given at values of 70 to 90)
COC(=O)[C@@H]1C=C[C@H](NC(=O)C(OC)C(=O)Nc2cccc(OC(F)(F)C(F)F)c2)C1 (stereo partly shown) [I.192],herbicidal activity against AMARE,AMARE [2],good (A good herbicidal activity is given at values of 70 to 90)
COC(=O)[C@@H]1C=C[C@H](NC(=O)C(OC)C(=O)Nc2cc(OC)c(C)c(OC)c2)C1 (stereo partly shown) [I.197],herbicidal activity against SETVI,SETVI,good (A good herbicidal activity is given at values of 70 to 90)
